Drawing on US9035059B2, “Nitrogen-containing condensed heterocyclic compound” (TAISHO PHARMACEUTICAL CO., LTD., priority 2011, dated 2015), this text covers IC50 for 48 compounds.

Each structure is given as a SMILES string.

For the assay, the target named is MGAT2 (microsomal fraction of human small intestine) (Homo sapiens (Human), UniProt Q3SYC2). Put plainly: Test Example 2: Test of MGAT2 inhibitory action (microsomal fraction of human small intestine, 3H-labeled 2-monooleoyl glycerol). In kind it is biochemical. Conditions: microsomal fraction of human small intestine 5 μg/ml; 4 μM oleoyl-CoA, 1.25 μM 2-monooleoyl glycerol, 0.125 μM 3H-labeled 2-monooleoyl glycerol; room temperature 30 min; read-out: Activity Value [nM] (IC50, concentration at which 50% of the products 3H-labeled dioleoyl glycerol and trioleoyl glycerol was inhibited). The protocol: An MGAT2 inhibition test for test compounds was conducted in accordance with a partially modified version of the method described in John F. Lockwood et al., Am. J. Physiol. Endocrinol. Metab., 2003, 285, E927.
MGAT2 (microsomal fraction of human small intestine), sequence (Q3SYC2 whole entry): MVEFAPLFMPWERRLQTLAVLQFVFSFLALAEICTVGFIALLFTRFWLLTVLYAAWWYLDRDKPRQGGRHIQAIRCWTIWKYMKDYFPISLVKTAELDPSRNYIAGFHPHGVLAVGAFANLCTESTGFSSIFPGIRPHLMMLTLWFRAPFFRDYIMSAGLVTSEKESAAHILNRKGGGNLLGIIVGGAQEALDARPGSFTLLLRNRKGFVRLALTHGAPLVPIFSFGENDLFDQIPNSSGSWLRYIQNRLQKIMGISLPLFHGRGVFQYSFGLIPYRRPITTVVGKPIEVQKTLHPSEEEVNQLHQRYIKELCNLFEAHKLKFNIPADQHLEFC
A 10 mg/mL microsomal fraction of human small intestine (duodenum- and jejunum-derived fraction purchased from Becton Dickinson Japan) was used as an enzyme source.
The test was conducted using a flat-bottom 96-well plate (Corning).
A buffer solution with final concentrations of 5 mM magnesium chloride, 1.25 mg/ml bovine serum albumin and 100 mM Tris-HCl (pH=7.5) was prepared and the microsomal fraction of human small intestine was added thereto to give a final concentration of 5 μg/ml. […] Thereafter, final concentrations of 5 mM magnesium chloride, 1.25 mg/ml bovine serum albumin, 100 mM Tris-HCl (pH=7.5), 4 μM oleoyl-CoA, 1.25 μM 2-monooleoyl glycerol and 0.125 μM ^3H-labeled 2-monooleoyl glycerol (Muromachi Yakuhin Co., Ltd.) were added thereto to give a total volume of 100 μl. This mixture was reacted at room temperature for 30 min.
The reaction was stopped by adding an equal amount of isopropanol to the reaction mixture. The substrate contained in the reaction mixture (^3H-labeled 2-monooleoyl glycerol) and the reaction products (^3H-labeled dioleoyl glycerol and trioleoyl glycerol) were separated by adsorbing them onto an octadecylsilane resin (Wako gel 50C18) (Wako Pure Chemical Industries, Ltd.), removing the substrate by use of 80% isopropanol, and then eluting the reaction products with 100% isopropanol. The amounts of the reaction products were measured with MicroBeta (PerkinElmer Japan).
Take `CC(c1ccc(C(F)(F)F)nc1)N1CCc2cc(S(=O)(=O)Nc3ccc(CCCC4CCCC4)cc3F)ccc2C1` (single isomer, unassigned) [24-3]: the IC50 was found to be 42 nM. On to `CC(c1ccc(C(F)(F)F)nc1)N1CCc2cc(S(=O)(=O)Nc3ccc(CCCC4CCCC4)cc3F)ccc2C1` (single isomer, unassigned) [24-4], for which the IC50 came out at 185 nM. With `CC(c1cnc(C(C)(C)C)nc1)N1CCc2cc(S(=O)(=O)Nc3ccc(CCCC4CCCC4)cc3F)ccc2C1` (single isomer, unassigned) [24-7], the IC50 amounted to 57 nM.

Take `CC(c1cnc(C(C)(C)C)nc1)N1CCc2cc(S(=O)(=O)Nc3ccc(CCCC4CCCC4)cc3F)ccc2C1` (single isomer, unassigned) [24-8]: the IC50 was 34 nM. In the case of `CC(c1cnc(C(F)(F)F)nc1)N1CCc2cc(S(=O)(=O)Nc3ccc(CCCC4CCCC4)cc3F)ccc2C1` (single isomer, unassigned) [24-9], the IC50 was 131 nM. With `CC(c1cnc(C(F)(F)F)nc1)N1CCc2cc(S(=O)(=O)Nc3ccc(CCCC4CCCC4)cc3F)ccc2C1` (single isomer, unassigned) [24-10] the figure was 100 nM. The figure for `CC(C)(C)c1ccc(CC(C)(C)N2CCc3cc(S(=O)(=O)Nc4ccc(CCCC5CCCC5)cc4F)ccc3C2)cc1` [20-2] is 14 nM. With `CC(C)(C)c1ccc(CC(C)(C)N2CCc3cc(S(=O)(=O)Nc4ccc(OCCC5CCOCC5)cc4F)ccc3C2)cc1` [20-3] the figure was 223 nM. As for `CC(C)(C)c1ccc(C(C)(C)N2CCc3cc(S(=O)(=O)Nc4ccc(CCCC5CCCC5)cc4F)ccc3C2)cn1` [20-4], the IC50 came out at 5 nM.

As to `CC(c1ccnc(C(C)(C)C)c1)N1CCc2cc(S(=O)(=O)Nc3ccc(CCCC4CCCC4)cc3F)ccc2C1` (stereo not drawn) [23-3], the IC50 turned out to be 13 nM. For `CC(c1ccc(OCC(F)(F)F)nc1)N1CCc2cc(S(=O)(=O)Nc3ccc(CCCC4CCCC4)cc3F)ccc2C1` (stereo not drawn) [23-6], the IC50 turned out to be 115 nM. Take `C[C@H](c1ccc(C(C)(C)C)nc1)N1CCc2cc(S(=O)(=O)Nc3ccc(CCCC4CCCC4)cc3F)ccc2C1` [24-1, 2-[(1R)-1-(6-tert-Butylpyridin-3-yl)ethyl]-N-[4-(3-cyclopentylpropyl)-2-fluorophenyl]-1,2,3,4-tetrahydroisoquinoline-6-sulfonamide]: the IC50 worked out at 4 nM. With `C[C@@H](c1ccc(C(C)(C)C)nc1)N1CCc2cc(S(=O)(=O)Nc3ccc(CCCC4CCCC4)cc3F)ccc2C1` [24-2, 2-[(1S)-1-(6-tert-butylpyridin-3-yl)ethyl]-N-[4-(3-cyclopentylpropyl)-2-fluorophenyl]-1,2,3,4-tetrahydroisoquinoline-6-sulfonamide] the figure was 29 nM; with `CC(C)(C)c1ccc(CC2(N3CCc4cc(S(=O)(=O)Nc5ccc(CCCC6CCCC6)cc5F)ccc4C3)CC2)cc1` [25-1, 2-[1-(4-tert-Butylbenzyl)cyclopropyl]-N-[4-(3-cyclopentylpropyl)-2-fluorophenyl]-1,2,3,4-tetrahydroisoquinoline-6-sulfonamide], 200 nM. The figure for `CC(C)(C)c1ccc(C2(N3CCc4cc(S(=O)(=O)Nc5ccc(CCCC6CCCC6)cc5F)ccc4C3)CC2)cn1` [25-2] is 60 nM; for `CC(C)(C)n1cc(CN2CCc3cc(S(=O)(=O)Nc4ccc(CCCC5CCCC5)cc4F)ccc3C2)cn1` [Working Example 2-4] it is 92 nM; for `CC(C)n1cc(CN2CCc3cc(S(=O)(=O)Nc4ccc(CCCC5CCCC5)cc4F)ccc3C2)cn1` [Working Example 2-5] it is 180 nM.

For `CC(C)Cn1cc(CN2CCc3cc(S(=O)(=O)Nc4ccc(CCCC5CCCC5)cc4F)ccc3C2)cn1` [Working Example 2-6], the IC50 came to 174 nM. The figure for `O=S(=O)(Nc1ccc(CCCC2CCCC2)cc1F)c1ccc2c(c1)CCN(Cc1cnn(CC3CC3)c1)C2` [Working Example 2-7] is 234 nM. On to `CCCn1cc(CN2CCc3cc(S(=O)(=O)Nc4ccc(CCCC5CCCC5)cc4F)ccc3C2)cn1` [Working Example 2-8], for which the IC50 amounted to 213 nM. With `O=S(=O)(Nc1ccc(CCCC2CCCC2)cc1F)c1ccc2c(c1)CCN(Cc1cnn(C3CCC3)c1)C2` [Working Example 2-9] the figure was 142 nM. With `CC(C)(C)n1cc(CN2CCc3cc(S(=O)(=O)Nc4ccc(OCCC5CCOCC5)cc4F)ccc3C2)cn1` [Working Example 2-10] the figure was 198 nM; with `CCn1cc(CN2CCc3cc(S(=O)(=O)Nc4ccc(CCCC5CCCC5)cc4F)ccc3C2)cn1` [Working Example 6-82], 182 nM; with `O=S(=O)(Nc1ccc(OCCC2CCOCC2)cc1F)c1ccc2c(c1)CCN(Cc1cnc(C(F)(F)F)nc1)C2` [Working Example 6-83], 193 nM. As to `O=S(=O)(Nc1ccc(CCCC2CCCC2)cc1F)c1ccc2c(c1)CCN(Cc1ccc(OCC(F)(F)F)nc1)C2` [Working Example 6-84], the IC50 worked out at 248 nM.

Turning to `CC(C)(C)c1cc(CN2CCc3cc(S(=O)(=O)Nc4ccc(CCCC5CCCC5)cc4F)ccc3C2)ccn1` [Working Example 6-85], the IC50 came to 71 nM. Consider `CC(C)(C)c1ncc(CCN2CCc3cc(S(=O)(=O)Nc4ccc(CCCC5CCCC5)cc4F)ccc3C2)s1` [Working Example 6-88], for which the IC50 came out at 248 nM. The figure for `CC(C)(C)c1cc(CCN2CCc3cc(S(=O)(=O)Nc4ccc(CCCC5CCCC5)cc4F)ccc3C2)ccn1` [Working Example 6-90] is 164 nM.

Take `Cc1nc(-c2ccccc2)sc1CN1CCc2cc(S(=O)(=O)Nc3ccc(CCCC4CCCC4)cc3F)ccc2C1` [Working Example 7-65]: the IC50 was found to be 118 nM.

As for `Cc1c(CN2CCc3cc(S(=O)(=O)Nc4ccc(CCCC5CCCC5)cc4F)ccc3C2)cnn1-c1ccccc1` [Working Example 7-70], the IC50 was 81 nM. The figure for `Cc1nn(-c2ccccc2)c(C)c1CN1CCc2cc(S(=O)(=O)Nc3ccc(CCCC4CCCC4)cc3F)ccc2C1` [Working Example 7-71] is 57 nM; for `O=S(=O)(Nc1ccc(CCCC2CCCC2)cc1F)c1ccc2c(c1)CCN(Cc1cnc(-c3ccc(Cl)cc3)s1)C2` [Working Example 7-74] it is 105 nM. With `Cc1ccc(-n2cc(CN3CCc4cc(S(=O)(=O)Nc5ccc(CCCC6CCCC6)cc5F)ccc4C3)cn2)cc1` [Working Example 7-76] the figure was 16 nM; with `Cc1ccc(-n2nc(C)c(CN3CCc4cc(S(=O)(=O)Nc5ccc(CCCC6CCCC6)cc5F)ccc4C3)c2C)cc1` [Working Example 7-80], 66 nM; with `Cc1cc(CN2CCc3cc(S(=O)(=O)Nc4ccc(CCCC5CCCC5)cc4F)ccc3C2)c(C)n1-c1cccc(C(F)(F)F)c1` [Working Example 7-81], 45 nM. The figure for `Cc1nn(C)c(C)c1CN1CCc2cc(S(=O)(=O)Nc3ccc(CCCC4CCCC4)cc3F)ccc2C1` [Working Example 7-82] is 189 nM. As for `Cc1cc(CN2CCc3cc(S(=O)(=O)Nc4ccc(CCCC5CCCC5)cc4F)ccc3C2)c(C)n1-c1ccncc1` [Working Example 7-88], the IC50 was determined as 145 nM.

With `CC(C)(C)n1cc(CCN2CCc3cc(S(=O)(=O)Nc4ccc(CCCC5CCCC5)cc4F)ccc3C2)cn1` [Working Example 7-91], the IC50 turned out to be 140 nM. As for `CC(C)(C)c1ccc(CCN2CCc3cc(S(=O)(=O)Nc4ccc(OCCC5CCCC5)cc4F)ccc3C2)cc1` [Working Example 8-5], the IC50 was 29 nM. With `CC(C)(C)c1ccc(CCN2CCc3cc(S(=O)(=O)Nc4ccc(OCCCS(=O)(=O)c5ccccc5)cc4F)ccc3C2)cc1` [Working Example 8-6], the IC50 is 35 nM. Turning to `CC(C)(C)c1cc(CN2CCc3cc(S(=O)(=O)Nc4ccc(OCCC5CCOCC5)cc4F)ccc3C2)ccn1` [Working Example 8-7], the IC50 came to 235 nM. `CC(C)(C)c1ccc(CCN2CCc3cc(S(=O)(=O)Nc4ccc(OCCOCC5CCCCO5)cc4F)ccc3C2)cc1` (stereo not drawn) [Working Example 8-8]: the IC50 worked out at 178 nM. Take `CC(C)(C)c1ccc(CCN2CCc3cc(S(=O)(=O)Nc4ccc(OCCOCC5CCCO5)cc4F)ccc3C2)cc1` (stereo not drawn) [Working Example 8-9]: the IC50 was 160 nM.

Take `CC(C)(C)c1ccc(CCN2CCc3cc(S(=O)(=O)Nc4ccc(OCCC5CCOC5)cc4F)ccc3C2)cc1` (stereo not drawn) [Working Example 8-10]: the IC50 came out at 148 nM. Regarding `CC(C)(C)c1ccc(CCN2CCc3cc(S(=O)(=O)Nc4ccc(OCC[C@H]5CCOC[C@H]5F)cc4F)ccc3C2)cc1` [Working Example 8-11], the IC50 was 169 nM. In the case of `CC(C)(C)c1ccc(CCN2CCc3cc(S(=O)(=O)Nc4ccc(OCCCOCC(F)(F)F)cc4F)ccc3C2)cc1` [Working Example 8-12], the IC50 amounted to 158 nM. Regarding `CC(C)(C)c1ccc(CCN2CCc3cc(S(=O)(=O)Nc4ccc(OCCOC5CCCCC5)cc4F)ccc3C2)cc1` [Working Example 8-13], the IC50 is 137 nM. With `CC(C)(C)c1ccc(CCN2CCc3cc(S(=O)(=O)Nc4ccc(OCCCOC5CCCC5)cc4F)ccc3C2)cc1` [Working Example 8-14] the figure was 68 nM.
